Source: article doi:10.1101/2021.09.30.462449v1 (biorxiv, 2021)

Legend:
Experiment in all cases: biochemical
Conditions in all cases: read-out: % inhibition mean (Z'Lyte)
AKT1 (PKB alpha) = AKT1 (PKB alpha) (Homo sapiens, UniProt P31749)
BTK = BTK (Homo sapiens, UniProt Q06187)
CSF1R (FMS) = CSF1R (FMS) (Homo sapiens, UniProt P07333)
CSNK1A1 (CK1 alpha 1) = CSNK1A1 (CK1 alpha 1) (Homo sapiens, UniProt P48729)
EEF2K = EEF2K (Homo sapiens, UniProt O00418)
EGFR (ErbB1) G719C = EGFR (ErbB1) G719C (Homo sapiens, UniProt P00533, G719C)
EGFR (ErbB1) T790M = EGFR (ErbB1) T790M (Homo sapiens, UniProt P00533, T790M)
FES (FPS) = FES (FPS) (Homo sapiens, UniProt P07332)
GSK3B (GSK3 beta) = GSK3B (GSK3 beta) (Homo sapiens, UniProt P49841)
JAK2 JH1 JH2 V617F = JAK2 JH1 JH2 V617F (Homo sapiens, UniProt O60674, V617F)
MAPK10 (JNK3) = MAPK10 (JNK3) (Homo sapiens, UniProt P53779)
Sequence of MAPK10 (JNK3) (P53779 whole entry): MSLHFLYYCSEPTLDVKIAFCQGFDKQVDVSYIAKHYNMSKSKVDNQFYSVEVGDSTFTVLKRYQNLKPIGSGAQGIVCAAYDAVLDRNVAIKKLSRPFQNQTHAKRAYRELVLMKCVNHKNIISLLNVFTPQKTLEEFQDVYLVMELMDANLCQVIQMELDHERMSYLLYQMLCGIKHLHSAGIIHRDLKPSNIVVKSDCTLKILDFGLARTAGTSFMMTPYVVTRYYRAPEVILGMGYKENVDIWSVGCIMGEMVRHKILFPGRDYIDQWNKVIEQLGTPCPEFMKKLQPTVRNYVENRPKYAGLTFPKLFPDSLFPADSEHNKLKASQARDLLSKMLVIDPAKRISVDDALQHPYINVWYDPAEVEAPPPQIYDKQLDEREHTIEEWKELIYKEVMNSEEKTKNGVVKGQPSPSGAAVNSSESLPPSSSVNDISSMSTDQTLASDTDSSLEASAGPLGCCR

MAPKAPK3 = MAPKAPK3 (Homo sapiens, UniProt Q16644)
MARK2 = MARK2 (Homo sapiens, UniProt Q7KZI7)
MARK4 = MARK4 (Homo sapiens, UniProt Q96L34)
MKNK1 (MNK1) = MKNK1 (MNK1) (Homo sapiens, UniProt Q9BUB5)
Sequence of MKNK1 (MNK1) (Q9BUB5 whole entry): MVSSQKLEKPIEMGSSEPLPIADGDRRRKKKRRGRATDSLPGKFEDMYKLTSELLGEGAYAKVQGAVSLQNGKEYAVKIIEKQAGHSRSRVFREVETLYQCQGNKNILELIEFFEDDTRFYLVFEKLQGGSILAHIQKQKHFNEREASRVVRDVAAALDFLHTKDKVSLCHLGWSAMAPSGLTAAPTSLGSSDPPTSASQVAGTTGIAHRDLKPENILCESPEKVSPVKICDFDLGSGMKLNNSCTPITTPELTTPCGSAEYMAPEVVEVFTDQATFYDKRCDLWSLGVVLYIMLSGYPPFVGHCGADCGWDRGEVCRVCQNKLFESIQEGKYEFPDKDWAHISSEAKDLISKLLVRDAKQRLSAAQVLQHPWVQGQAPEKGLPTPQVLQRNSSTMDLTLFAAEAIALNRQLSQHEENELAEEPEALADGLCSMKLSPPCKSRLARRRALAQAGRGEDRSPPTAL

MST4 = MST4 (Homo sapiens, UniProt Q9P289)
Sequence of MST4 (Q9P289 whole entry): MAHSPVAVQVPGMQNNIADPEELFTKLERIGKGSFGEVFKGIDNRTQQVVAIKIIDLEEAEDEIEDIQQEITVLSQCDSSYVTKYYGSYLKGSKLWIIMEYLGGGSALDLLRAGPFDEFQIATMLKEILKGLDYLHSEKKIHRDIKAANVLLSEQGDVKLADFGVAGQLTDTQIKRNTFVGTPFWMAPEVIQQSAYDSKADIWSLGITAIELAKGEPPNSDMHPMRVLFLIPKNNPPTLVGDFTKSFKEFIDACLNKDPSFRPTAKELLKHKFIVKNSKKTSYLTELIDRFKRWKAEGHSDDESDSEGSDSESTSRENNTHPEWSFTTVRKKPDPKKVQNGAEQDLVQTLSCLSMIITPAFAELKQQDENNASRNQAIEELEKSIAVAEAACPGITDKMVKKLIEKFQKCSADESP

NEK2 = NEK2 (Homo sapiens, UniProt P51955)
PAK4 = PAK4 (Homo sapiens, UniProt O96013)
PDGFRA V561D = PDGFRA V561D (Homo sapiens, UniProt P16234, V561D)
PEAK1 = PEAK1 (Homo sapiens, UniProt Q9H792)
PKN1 (PRK1) = PKN1 (PRK1) (Homo sapiens, UniProt Q16512)
Sequence of PKN1 (PRK1) (Q16512 whole entry): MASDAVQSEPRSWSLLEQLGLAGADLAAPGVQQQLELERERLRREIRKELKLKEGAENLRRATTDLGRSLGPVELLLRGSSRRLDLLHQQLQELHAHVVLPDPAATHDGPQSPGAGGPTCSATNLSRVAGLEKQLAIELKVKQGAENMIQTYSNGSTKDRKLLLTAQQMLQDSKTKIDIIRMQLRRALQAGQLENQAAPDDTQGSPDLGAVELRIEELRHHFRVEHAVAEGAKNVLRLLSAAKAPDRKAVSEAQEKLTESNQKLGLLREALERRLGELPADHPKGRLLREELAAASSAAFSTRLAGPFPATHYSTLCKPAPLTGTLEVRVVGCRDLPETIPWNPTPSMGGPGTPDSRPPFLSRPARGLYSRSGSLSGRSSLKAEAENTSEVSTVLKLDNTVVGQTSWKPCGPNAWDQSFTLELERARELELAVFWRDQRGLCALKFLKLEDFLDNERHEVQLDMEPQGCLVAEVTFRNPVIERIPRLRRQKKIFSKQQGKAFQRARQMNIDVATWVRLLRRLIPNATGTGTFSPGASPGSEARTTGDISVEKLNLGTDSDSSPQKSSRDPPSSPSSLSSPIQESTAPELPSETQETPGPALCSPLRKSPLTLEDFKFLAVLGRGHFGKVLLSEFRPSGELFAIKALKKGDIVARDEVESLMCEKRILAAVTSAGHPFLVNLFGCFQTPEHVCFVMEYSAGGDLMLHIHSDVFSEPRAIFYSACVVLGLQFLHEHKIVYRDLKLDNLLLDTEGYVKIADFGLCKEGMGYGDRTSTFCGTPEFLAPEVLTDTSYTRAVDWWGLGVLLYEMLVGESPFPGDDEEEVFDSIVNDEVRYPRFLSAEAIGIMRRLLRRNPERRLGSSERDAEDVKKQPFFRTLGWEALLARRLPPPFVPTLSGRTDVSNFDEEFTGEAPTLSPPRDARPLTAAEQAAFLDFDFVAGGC

PLK2 = PLK2 (Homo sapiens, UniProt Q9NYY3)
Sequence of PLK2 (Q9NYY3 whole entry): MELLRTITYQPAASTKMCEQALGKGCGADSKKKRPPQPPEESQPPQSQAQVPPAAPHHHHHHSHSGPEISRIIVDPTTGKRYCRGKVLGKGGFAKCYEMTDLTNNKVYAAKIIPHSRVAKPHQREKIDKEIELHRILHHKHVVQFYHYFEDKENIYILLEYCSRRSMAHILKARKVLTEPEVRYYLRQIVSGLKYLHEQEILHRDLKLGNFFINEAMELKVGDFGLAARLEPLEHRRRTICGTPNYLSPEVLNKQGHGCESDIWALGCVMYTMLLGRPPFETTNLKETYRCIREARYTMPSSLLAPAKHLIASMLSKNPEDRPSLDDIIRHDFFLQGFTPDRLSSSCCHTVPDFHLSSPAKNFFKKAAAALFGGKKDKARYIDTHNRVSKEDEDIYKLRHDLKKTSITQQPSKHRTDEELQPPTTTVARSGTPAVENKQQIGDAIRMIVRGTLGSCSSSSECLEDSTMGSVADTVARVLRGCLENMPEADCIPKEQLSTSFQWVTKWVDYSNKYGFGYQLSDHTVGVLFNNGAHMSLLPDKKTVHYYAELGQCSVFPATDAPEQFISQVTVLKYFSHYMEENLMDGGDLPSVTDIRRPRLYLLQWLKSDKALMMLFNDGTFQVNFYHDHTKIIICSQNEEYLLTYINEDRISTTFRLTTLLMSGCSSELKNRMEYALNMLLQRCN

PRKCD (PKC delta) = PRKCD (PKC delta) (Homo sapiens, UniProt Q05655)
RPS6KA1 (RSK1) = RPS6KA1 (RSK1) (Homo sapiens, UniProt Q15418)
RPS6KA5 (MSK1) = RPS6KA5 (MSK1) (Homo sapiens, UniProt O75582)
SNF1LK2 = SNF1LK2 (Homo sapiens, UniProt Q9H0K1)
TBK1 = TBK1 (Homo sapiens, UniProt Q9UHD2)
Sequence of TBK1 (Q9UHD2 whole entry): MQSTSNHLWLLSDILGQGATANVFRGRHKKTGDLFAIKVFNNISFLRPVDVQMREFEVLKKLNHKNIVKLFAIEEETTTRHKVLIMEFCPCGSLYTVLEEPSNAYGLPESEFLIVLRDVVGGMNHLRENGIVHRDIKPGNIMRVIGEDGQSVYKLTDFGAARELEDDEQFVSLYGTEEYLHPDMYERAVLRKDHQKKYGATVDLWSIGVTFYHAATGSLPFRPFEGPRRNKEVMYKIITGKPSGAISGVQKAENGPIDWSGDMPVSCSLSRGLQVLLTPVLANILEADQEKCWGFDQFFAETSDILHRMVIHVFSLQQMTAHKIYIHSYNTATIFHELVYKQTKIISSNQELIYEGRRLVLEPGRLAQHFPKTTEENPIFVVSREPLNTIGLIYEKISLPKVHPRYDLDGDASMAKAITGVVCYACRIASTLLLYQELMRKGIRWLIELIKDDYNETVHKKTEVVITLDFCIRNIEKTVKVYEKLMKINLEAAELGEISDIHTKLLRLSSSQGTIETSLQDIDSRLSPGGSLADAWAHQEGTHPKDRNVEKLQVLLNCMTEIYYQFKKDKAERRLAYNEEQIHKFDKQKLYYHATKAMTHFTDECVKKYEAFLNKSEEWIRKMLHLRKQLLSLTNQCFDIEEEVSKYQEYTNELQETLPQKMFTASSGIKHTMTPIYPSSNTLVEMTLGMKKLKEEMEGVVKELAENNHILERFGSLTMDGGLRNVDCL

TEK (Tie2) = TEK (Tie2) (Homo sapiens, UniProt Q02763)
TXK = TXK (Homo sapiens, UniProt P42681)
Sequence of TXK (P42681 whole entry): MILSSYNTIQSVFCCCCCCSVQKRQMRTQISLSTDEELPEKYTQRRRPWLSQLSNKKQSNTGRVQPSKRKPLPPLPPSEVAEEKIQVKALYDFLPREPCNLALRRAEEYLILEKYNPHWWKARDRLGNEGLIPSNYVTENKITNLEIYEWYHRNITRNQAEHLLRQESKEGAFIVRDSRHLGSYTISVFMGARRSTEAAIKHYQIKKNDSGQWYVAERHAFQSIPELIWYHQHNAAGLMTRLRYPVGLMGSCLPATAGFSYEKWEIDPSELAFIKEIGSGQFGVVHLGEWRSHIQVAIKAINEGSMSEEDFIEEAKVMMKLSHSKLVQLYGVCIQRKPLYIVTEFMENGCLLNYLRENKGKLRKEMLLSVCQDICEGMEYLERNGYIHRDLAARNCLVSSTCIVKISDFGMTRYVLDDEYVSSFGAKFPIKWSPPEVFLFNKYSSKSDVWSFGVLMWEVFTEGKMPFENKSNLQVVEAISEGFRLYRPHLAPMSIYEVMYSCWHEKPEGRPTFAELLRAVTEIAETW

Sequence of BTK (Q06187 whole entry): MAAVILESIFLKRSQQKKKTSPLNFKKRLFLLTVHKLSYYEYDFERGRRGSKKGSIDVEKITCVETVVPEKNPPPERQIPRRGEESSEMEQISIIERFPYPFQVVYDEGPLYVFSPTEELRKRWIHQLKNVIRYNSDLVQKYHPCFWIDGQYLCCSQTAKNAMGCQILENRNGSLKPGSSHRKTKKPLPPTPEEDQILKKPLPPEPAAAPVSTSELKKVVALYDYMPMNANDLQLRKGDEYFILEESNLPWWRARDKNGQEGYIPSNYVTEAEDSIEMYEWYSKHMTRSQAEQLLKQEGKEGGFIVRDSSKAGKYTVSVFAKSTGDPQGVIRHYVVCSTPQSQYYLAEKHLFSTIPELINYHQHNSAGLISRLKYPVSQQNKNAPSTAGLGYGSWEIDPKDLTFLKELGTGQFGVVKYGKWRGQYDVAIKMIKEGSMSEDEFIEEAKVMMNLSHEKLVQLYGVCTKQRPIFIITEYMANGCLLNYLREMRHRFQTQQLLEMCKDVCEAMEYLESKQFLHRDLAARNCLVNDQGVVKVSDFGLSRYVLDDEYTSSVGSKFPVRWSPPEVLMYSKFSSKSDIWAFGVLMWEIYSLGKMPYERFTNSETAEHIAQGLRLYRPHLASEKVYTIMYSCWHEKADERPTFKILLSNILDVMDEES

## COc1ccc2nc3cc(Cl)ccc3c(Nc3cc(CN4CCCC4)c(O)c(CN4CCCC4)c3)c2n1 [Pyronaridine, 4-[(7-Chloro-2-methoxybenzo[b][1,5]naphthyridin-10-yl)amino]-2,6-bis(1-pyrrolidinylmethyl)phenol phosphate (1:4)]
AKT1 (PKB alpha)
  inhibition at 1 µM: 4%
BTK
  inhibition at 1 µM: 9%
CSF1R (FMS)
  inhibition at 1 µM: -3%
CSNK1A1 (CK1 alpha 1)
  inhibition at 1 µM: 5%
EEF2K
  inhibition at 1 µM: 1%
EGFR (ErbB1) G719C
  inhibition at 1 µM: -4%
EGFR (ErbB1) T790M
  inhibition at 1 µM: 2%
FES (FPS)
  inhibition at 1 µM: -10%
GSK3B (GSK3 beta)
  inhibition at 1 µM: 8%
JAK2 JH1 JH2 V617F
  inhibition at 1 µM: 0%
MAPK10 (JNK3)
  inhibition at 1 µM: 0%
MAPKAPK3
  inhibition at 1 µM: 17%
MARK2
  inhibition at 1 µM: 6%
MARK4
  inhibition at 1 µM: -4%
MKNK1 (MNK1)
  inhibition at 1 µM: 4%
MST4
  inhibition at 1 µM: 1%
NEK2
  inhibition at 1 µM: -4%
PAK4
  inhibition at 1 µM: 3%
PDGFRA V561D
  inhibition at 1 µM: 2%
PEAK1
  inhibition at 1 µM: 1%
PKN1 (PRK1)
  inhibition at 1 µM: 1%
PLK2
  inhibition at 1 µM: 5%
PRKCD (PKC delta)
  inhibition at 1 µM: 3%
RPS6KA1 (RSK1)
  inhibition at 1 µM: -1%
RPS6KA5 (MSK1)
  inhibition at 1 µM: 2%
SNF1LK2
  inhibition at 1 µM: -5%
TBK1
  inhibition at 1 µM: 4%
TEK (Tie2)
  inhibition at 1 µM: 5%
TXK
  inhibition at 1 µM: 4%
